# “And” between values parts separate entries of the source, which are not always exact repeats. Equal entries are not always repeated.
# How the values were obtained:
# [1] = system: MOLM-14 cells; experiment: Quantification of intracellular drug concentration by LC-MS; type: in vitro ADME; conditions: for Intracellular concentration: Concentration of compound, AVE / intracellular amount, AVE / intracellular amount / Intracellular concentration: Concentration of compound: 200 nM; for Intracellular concentration: Concentration of compound, AVE / intracellular amount, AVE: average of 3 replicates; for intracellular amount: initial amount 0.4000 nmol; for Intracellular concentration: Concentration of compound: sample volume 400 µL
# Experimental: MOLM-14 cells were seeded at a density of 0.5 × 10^6 per mL in 2 mL medium. […] The samples were immediately centrifuged at 12,000 × g for 15 min at 4 °C, then removing the supernatant. In all, 400 μL of NP-40 lysis buffer was added to the cell pellet and mixed thoroughly. The mixtures were rocked for 1 h at 4 °C and centrifuged at 12,000 × g for 15 min at 4 °C. Then the supernatant was transferred to new EP tubes. In total, 20 µL supernatant was extracted with 180 µL of acetonitrile (containing internal standard: 250 nM of RNC-Ctrl) and centrifuged at the same conditions described above. Take 75 μL of supernatant for liquid chromatography-mass spectrometry analysis.
# The mass spectrometer was operated in positive SIM ion mode (fragmentor 120 V; cycle time 0.6 s/cycle; Agilent Technologies 6130 Quadrupole LC/MS).
# [2] = system: MOLM-14 cells; experiment: Quantitative multiplexed (TMT) proteomics of compound-treated cells; type: cell-based, Homo sapiens; conditions: 200 nM, 24 h
# Experimental: For proteomic study of the cellular protein profile following BTK degradation, MOLM-14 cells were treated in duplicate with 200 nM of RC-1, RNC-1, IRC-1, or RC-1-Me for 24 h, and then the cells were collected and processed for proteomics analysis (Sanford Burnham Prebys Medical Discovery Institute, La Jolla, California).
# For cell lysis and protein digestion, cells were lysed with vigorous shaking (20 Hz for 10 min at room temperature by Retsch MM301 instrument) in 0.5 mL of lysis buffer (8 M urea, 50 mM ammonium bicarbonate (ABC); plus Benzonase 24U/100 ml), and extracted proteins were centrifuged at 14,000 × g for 10 min to remove cellular debris. Supernatant protein concentration was determined using a bicinchoninic acid (BCA) protein assay. Following quantification, the proteins were digested in solution. First, protein disulfide bonds were reduced with 5 mM tris(2-carboxyethyl)phosphine (TCEP) at 30 °C for 60 min, alkylated (carbamidomethylated) with 15 mM iodoacetamide (IAA) in the dark at room temperature for 30 min. Urea was then diluted to 1 M urea using 50 mM ammonium bicarbonate, and proteins were subjected to overnight digestion with mass spec grade Trypsin/Lys-C mix. Following digestion, samples were acidified with formic acid (FA) and subsequently desalted using Waters Sep-Pak C18. Cartridges were sequentially conditioned with 100% acetonitrile (ACN) and 0.1% FA, samples were then loaded, washed with 0.1% FA, and peptides eluted with 60% ACN, 0.1% FA. Finally, the organic solvent was removed in a SpeedVac concentrator prior to LC-MS/MS analysis.
# Prior to TMT labeling, sample peptide amount was quantified using a NanoDrop^TM spectrophotometer (ThermoFisher). Samples were labeled according to the table schematic shown below using our TMT protocol. Briefly, a normalized amount of peptides sample was resuspended in 200 mM HEPES pH 8, and then labeled with one of the TMT10-plex reagents for 1 h at room temperature. TMT labels/channels were as follows:
# Reactions were quenched with 5% hydroxylamine solution. The 10 samples were then combined, dried down in a SpeedVac system, resuspended in 0.1% FA, and desalted as described above. After desalting, the organic solvent was removed in a SpeedVac concentrator.
# Dried samples were reconstituted in 20 mM ammonium formate pH ~10, and fractionated by high pH reverse phase using a Waters Acquity CSH C18 2.1-µm 1 × 150 mm column mounted on an M-Class Ultra Performance Liquid Chromatography (UPLC) system (Waters corp., Milford, MA). […] A total of 36 fractions were collected and pooled in a non-contiguous manner into 18 total fractions: 1 + 19, 2 + 20, 3 + 21, 4 + 22, 5 + 23, 6 + 24, 7 + 25, 8 + 26, 9 + 27, 10 + 28, 11 + 29, 12 + 30, 13 + 31, 14 + 32, 15 + 33, 16 + 34, 17 + 35, and 18 + 36. Pooled fractions were dried to completeness in a SpeedVac concentrator.
# Dried fractions were reconstituted with 2% ACN-0.1% FA and analyzed by LC-MS/MS using a nanoACQUITY system (Waters) coupled to an Orbitrap Fusion Lumos mass spectrometer (Thermo Fisher Scientific). […] The mass spectrometer was operated in positive data-dependent acquisition mode. MS1 spectra were measured in the Orbitrap with a resolution of 60,000 (AGC target: 4e5; maximum injection time: 50 ms; mass range: from 350 to 1500 m/z). The instrument was set to run in top speed mode with 3 s cycles for the survey and the MS/MS scans. After a survey scan, tandem MS was performed in the Ion Routing Multipole HCD-Cell on the most abundant precursors by isolating them in the quadrupole (Isolation window: 0.7 m/z; charge state: +2–7; collision energy: 35%). […] The dynamic exclusion was set to 20 s with a 10-ppm mass tolerance around the precursor and its isotopes.
# For data analysis, all mass spectra were analyzed with MaxQuant software version 1.5.5.1. MS/MS spectra were searched against the Homo sapiens Uniprot protein sequence database (version January 2018) and GPM cRAP sequences (commonly known protein contaminants). […]
smiles,measurement,setting,value
CN(CC=CC(=O)N1CCCC(n2nc(-c3ccc(Oc4ccccc4)cc3)c3c(N)ncnc32)C1)CCCNC(=O)CNc1cccc2c1C(=O)N(C1CCC(=O)NC1=O)C2=O (centres unmarked) [IRC-1],"Intracellular concentration: Concentration of compound, AVE",[1]; 5 min,0.0785 µM
same,"intracellular amount, AVE",[1]; 5 min,0.0314 nmol
same,intracellular amount,"[1]; 5 min, single replicates",0.0285 nmol and 0.0325 nmol and 0.0332 nmol
same,Intracellular concentration: Concentration of compound,"[1]; 5 min, single replicates",0.0713 µM and 0.0812 µM and 0.0831 µM
same,"Intracellular concentration: Concentration of compound, AVE",[1]; 15 min,0.0779 µM
same,"intracellular amount, AVE",[1]; 15 min,0.0311 nmol
same,intracellular amount,"[1]; 15 min, single replicates",0.0307 nmol and 0.0322 nmol and 0.0305 nmol
same,Intracellular concentration: Concentration of compound,"[1]; 15 min, single replicates",0.0767 µM and 0.0806 µM and 0.0763 µM
same,"Intracellular concentration: Concentration of compound, AVE",[1]; 30 min,0.0702 µM
same,"intracellular amount, AVE",[1]; 30 min,0.0281 nmol
same,intracellular amount,"[1]; 30 min, single replicates",0.0259 nmol and 0.0296 nmol and 0.0288 nmol
same,Intracellular concentration: Concentration of compound,"[1]; 30 min, single replicates",0.0648 µM and 0.0740 µM and 0.0719 µM
same,"Intracellular concentration: Concentration of compound, AVE",[1]; 60 min,0.0651 µM
same,"intracellular amount, AVE",[1]; 60 min,0.0260 nmol
same,intracellular amount,"[1]; 60 min, single replicates",0.0274 nmol and 0.0266 nmol and 0.0240 nmol
same,Intracellular concentration: Concentration of compound,"[1]; 60 min, single replicates",0.0686 µM and 0.0666 µM and 0.0601 µM
same,"Intracellular concentration: Concentration of compound, AVE",[1]; 90 min,0.0717 µM
same,"intracellular amount, AVE",[1]; 90 min,0.0287 nmol
same,intracellular amount,"[1]; 90 min, single replicates",0.0275 nmol and 0.0290 nmol and 0.0295 nmol
same,Intracellular concentration: Concentration of compound,"[1]; 90 min, single replicates",0.0688 µM and 0.0725 µM and 0.0738 µM
same,"Intracellular concentration: Concentration of compound, AVE",[1]; 120 min,0.0652 µM
same,"intracellular amount, AVE",[1]; 120 min,0.0261 nmol
same,intracellular amount,"[1]; 120 min, single replicates",0.0239 nmol and 0.0281 nmol and 0.0261 nmol
same,Intracellular concentration: Concentration of compound,"[1]; 120 min, single replicates",0.0598 µM and 0.0703 µM and 0.0653 µM
same,"Intracellular concentration: Concentration of compound, AVE",[1]; 240 min,0.0595 µM
same,"intracellular amount, AVE",[1]; 240 min,0.0238 nmol
same,intracellular amount,"[1]; 240 min, single replicates",0.0228 nmol and 0.0239 nmol and 0.0246 nmol
same,Intracellular concentration: Concentration of compound,"[1]; 240 min, single replicates",0.0571 µM and 0.0598 µM and 0.0616 µM
same,Cellular concentration,"[1]; 5 min, Mean",0.0314 nmol/million cells
same,Cellular concentration,"[1]; 5 min, single replicates, MOLM-14, 200 nM",0.0285 nmol/million cells and 0.0325 nmol/million cells and 0.0332 nmol/million cells
same,Cellular concentration,"[1]; 15 min, Mean",0.0311 nmol/million cells
same,Cellular concentration,"[1]; 15 min, single replicates, MOLM-14, 200 nM",0.0307 nmol/million cells and 0.0322 nmol/million cells and 0.0305 nmol/million cells
same,Cellular concentration,"[1]; 30 min, Mean",0.0281 nmol/million cells
same,Cellular concentration,"[1]; 30 min, single replicates, MOLM-14, 200 nM",0.0259 nmol/million cells and 0.0296 nmol/million cells and 0.0288 nmol/million cells
same,Cellular concentration,"[1]; 60 min, Mean",0.0260 nmol/million cells and 0.026 nmol/million cells
same,Cellular concentration,"[1]; 60 min, single replicates, MOLM-14, 200 nM",0.0240 nmol/million cells and 0.0274 nmol/million cells and 0.0266 nmol/million cells and 0.024 nmol/million cells
same,Cellular concentration,"[1]; 90 min, Mean",0.0287 nmol/million cells
same,Cellular concentration,"[1]; 90 min, single replicates, MOLM-14, 200 nM",0.0290 nmol/million cells and 0.0275 nmol/million cells and 0.029 nmol/million cells and 0.0295 nmol/million cells
same,Cellular concentration,"[1]; 120 min, Mean",0.0261 nmol/million cells
same,Cellular concentration,"[1]; 120 min, single replicates, MOLM-14, 200 nM",0.0239 nmol/million cells and 0.0281 nmol/million cells and 0.0261 nmol/million cells
same,Cellular concentration,"[1]; 240 min, Mean",0.0238 nmol/million cells
same,Cellular concentration,"[1]; 240 min, single replicates, MOLM-14, 200 nM",0.0228 nmol/million cells and 0.0239 nmol/million cells and 0.0246 nmol/million cells
same,"degradation of IMiD-dependent substrates IKZF1, ZFP91, ZNF692",[2],specifically degraded
same,kinases degraded (proteomics),[2],7
